Test results as given in patent publication EP1145714A1, “DRUGS” (Takeda Chemical Industries, Ltd., priority 1998, dated 2000).

Key:
[1] = tested on: acute and delayed vomiting induced by cisplatin in ferrets; test: Acute and delayed vomiting induced by cisplatin in ferrets, oral dosing once or twice daily; type: in vivo; settings: cisplatin 5 mg/kg i.p.; for Duration (in hour; mean ± SD) / Latency (in hour; mean ± SD) / On day 0 (0-24 hours): frequency of retching and vomiting (mean ± SD) / On day 0 (0-24 hours): number of ferrets with vomiting/ number of tested ferrets / On days 1-2(24-48 hours): frequency of retching and vomiting (mean ± SD) / On days 1-2(24-48 hours): number of ferrets with vomiting/ number of tested ferrets / Total frequency of retching and vomiting (on days 0~2; 0-72 hours): twice daily, under fasting
Experimental: Male 4 to 6 ferrets (1.2 to 2.2 kg) per one group were used. Cisplatin was intraperitoneally given at 5 mg/5ml/kg. 30 minutes prior to cisplatin administration and 24 and 48 hours after cisplatin administration, predetermined doses of the compound No. 3 were orally given in case of dosing once daily. 30 minutes prior to cisplatin administration and 12, 24, 36, 48 and 60 hours after cisplatin administration, predetermined doses of the compound No. 3 were orally given in case of dosing twice daily. 30 minutes prior to the dosing of the compound No. 3, a small amount of a feed was given to the animals in any of the cases. Similarly, a predetermined volume of 0.5 % methyl cellulose solution was similarly given orally to a control animal group under no fasting. A predetermined dose of ondansetron was orally given to the animals under fasting. To a control animal group of ondansetron, a predetermined volume of physiological saline was orally given to the animals under fasting. The frequency of vomiting was counted in number, up to 72 hours after cisplatin administration.
The compound No. 3 was suspended in 0.5 % methyl cellulose solution, for oral dosing at predetermined doses at a ratio of 1 ml per 1 kg body weight. An injection of ondansetron at 0.2 w/v % concentration was orally given at a predetermined volume. Additionally, 0.5 % methyl cellulose solution was orally given at a ratio of 1 ml per 1 kg body weight, while physiological saline was orally given at a ratio of 0.5 to 1.5 ml per 1 kg body weight. The data relating to the frequency of vomiting, the time period (latency) until first vomiting and the time period from the occurrence of vomiting to the termination thereof were statistically analyzed by the Dunnett test, with reference to the difference from the control group.
The acute vomiting suppression ratio, delayed vomiting suppression ratio and total vomiting suppression ratio were calculated by the following formula. [Frequency of retching or vomiting in control] - [Frequency of retching or vomiting in animals dosed with compound No. 3] / [Frequency of retching or vomiting in control] x 100 (%) [formula]

[2] = tested on: vomiting induced by morphine in ferrets; test: Vomiting induced by morphine in ferrets, oral dosing; type: in vivo; settings: 3 mg/kg p.o., morphine 0.3 mg/kg subcutaneous
Experimental: Male 6 or 7 ferrets (1.6 to 2.0 kg) per one group were used. Morphine was subcutaneously administered at0.3 mg/0.3 ml/kg. 2.5 hours before morphine dosing, a small amount of a feed was given to the animals. 30 minutes thereafter, predetermined doses of the compound No. 3 were orally given. To a control animal group under no fasting was orally given a predetermined volume of 0.5 % methyl cellulose solution. A predetermined volume of ondansetron was orally given to the animals under fasting. To a control animal group of ondansetron under fasting was orally given a predetermined volume of physiological saline. The frequency of vomiting was counted up to 30 minutes after morphine dosing. The compound No. 3 was suspended in 0.5 % methyl cellulose solution and was then orally dosed at a ratio of 1 ml per 1 kg body weight. An injection of ondansetron at a concentration of 0.2 w/v % was orally dosed. Additionally, 0.5 % methyl cellulose solution was orally given at a ratio of 1 ml per 1 kg body weight, while physiological saline was orally given at a ratio of 1 ml per 1 kg body weight. The data relating to the frequency of vomiting, the latency and the time period from the occurrence of vomiting to the termination thereof were statistically analyzed by the Dunnett test or t test, with reference to the difference from the control group.
The retching suppression ratio and vomiting suppression ratio were calculated by the following formula. [Frequency of retching or vomiting in control] - [Frequency of retching or vomiting in animals dosed with compound No. 3] / [Frequency of retching or vomiting in control] x 100 (%) [formula]

Question: Which “Acute vomiting suppression ratio (0 to 24 hours after cisplatin dosing)” value ([1]; 1 mg/kg p.o. twice daily) does the source give for `Cc1nccn1CC1CCc2c(c3ccccc3n2C)C1=O` (stereo not shown) [Ondansetron, ondansetron, reference compound] here?
Answer: Its value is 0 % NS.

Question: What about the “Delayed vomiting suppression ratio (24 to 72 hours after cisplatin dosing)” value ([1]; 1 mg/kg p.o. twice daily) of the same molecule?
Answer: The value was 0 % NS.

Question: What about the “Total vomiting suppression ratio (0 to 72 hours after cisplatin dosing)” value ([1]; 1 mg/kg p.o. twice daily) of the same molecule?
Answer: Its value is 0 % NS.

Question: What about the “Duration (in hour; mean ± SD)” value ([1]; 1 mg/kg × 2 p.o.) of the same molecule?
Answer: Its value is 56.5 ± 2.6 h.

Question: And the “Latency (in hour; mean ± SD)” value ([1]; 1 mg/kg × 2 p.o.)?
Answer: The value was 8.7 ± 0.9 h.

Question: What about the “On day 0 (0-24 hours): frequency of retching and vomiting (mean ± SD)” value ([1]; 1 mg/kg × 2 p.o.) of the same molecule?
Answer: The value was 70.2 ± 25.2.

Question: What about the “On day 0 (0-24 hours): number of ferrets with vomiting/ number of tested ferrets” value ([1]; 1 mg/kg × 2 p.o.) of the same molecule?
Answer: Its value is 5/5.

Question: What about the “On days 1-2(24-48 hours): frequency of retching and vomiting (mean ± SD)” value ([1]; 1 mg/kg × 2 p.o.) of the same molecule?
Answer: The value was 327.4 ± 88.8.

Question: What about the “On days 1-2(24-48 hours): number of ferrets with vomiting/ number of tested ferrets” value ([1]; 1 mg/kg × 2 p.o.) of the same molecule?
Answer: The value was 5/5.

Question: And the “Total frequency of retching and vomiting (on days 0~2; 0-72 hours)” value ([1]; 1 mg/kg × 2 p.o.)?
Answer: Its value is 397.6 ± 72.0.

Question: And the “Acute vomiting suppression ratio (0 to 24 hours after cisplatin dosing)” value ([1]; 3 mg/kg p.o. twice daily)?
Answer: The value was 58 % NS.

Question: And the “Delayed vomiting suppression ratio (24 to 72 hours after cisplatin dosing)” value ([1]; 3 mg/kg p.o. twice daily)?
Answer: Its value is 32 % NS.

Question: And the “Total vomiting suppression ratio (0 to 72 hours after cisplatin dosing)” value ([1]; 3 mg/kg p.o. twice daily)?
Answer: The value was 36 % NS.

Question: And the “Duration (in hour; mean ± SD)” value ([1]; 3 mg/kg × 2 p.o.)?
Answer: The value was 44.2 ± 8.4 h.

Question: What about the “Latency (in hour; mean ± SD)” value ([1]; 3 mg/kg × 2 p.o.) of the same molecule?
Answer: Its value is 15.7 ± 5.6 h.

Question: And the “On day 0 (0-24 hours): frequency of retching and vomiting (mean ± SD)” value ([1]; 3 mg/kg × 2 p.o.)?
Answer: Its value is 27.8 ± 13.1.

Question: And the “On day 0 (0-24 hours): number of ferrets with vomiting/ number of tested ferrets” value ([1]; 3 mg/kg × 2 p.o.)?
Answer: The value was 4/6.

Question: What about the “On days 1-2(24-48 hours): frequency of retching and vomiting (mean ± SD)” value ([1]; 3 mg/kg × 2 p.o.) of the same molecule?
Answer: Its value is 221.7 ± 62.9.

Question: What about the “On days 1-2(24-48 hours): number of ferrets with vomiting/ number of tested ferrets” value ([1]; 3 mg/kg × 2 p.o.) of the same molecule?
Answer: Its value is 6/6.

Question: And the “Total frequency of retching and vomiting (on days 0~2; 0-72 hours)” value ([1]; 3 mg/kg × 2 p.o.)?
Answer: The value was 249.5 ± 74.2.

Question: And the “Acute vomiting suppression ratio” value [2]?
Answer: The value was 0 % NS.

Question: What about the “Effect on retching and vomiting (in words)” value [2] of the same molecule?
Answer: The value was “did not suppress”.

Question: And the Pseudo-vomiting suppression ratio [2]?
Answer: Its Pseudo-vomiting suppression ratio is 12 % NS.

Question: And the “A: Number of ferrets with retching/number of tested ferrets” value ([2]; under fasting, 30 minutes)?
Answer: Its value is 5/6.

Question: And the “B: Frequency of retching (mean ± SD)” value ([2]; under fasting, 30 minutes)?
Answer: Its value is 17.2 ± 6.4.

Question: What about the “C: Time period until first retching (minute; mean ± SD)” value ([2]; under fasting, 30 minutes) of the same molecule?
Answer: The value was 8.8 ± 4.3 min.

Question: And the “D: Duration of retching (minute; mean ± SD)” value ([2]; under fasting, 30 minutes)?
Answer: Its value is 5.0 ± 2.3 min.

Question: What about the “E: Number of ferrets with vomiting/number of tested ferrets” value ([2]; under fasting, 30 minutes) of the same molecule?
Answer: The value was 5/6.

Question: And the “F: Frequency of vomiting (mean ± SD)” value ([2]; under fasting, 30 minutes)?
Answer: Its value is 2.3 ± 1.2.

Question: And the “G: Time period until first vomiting (minute; mean ± SD)” value ([2]; under fasting, 30 minutes)?
Answer: The value was 9.2 ± 4.2 min.

Question: What about the “H: Duration of vomiting (minute; mean ± SD)” value ([2]; under fasting, 30 minutes) of the same molecule?
Answer: The value was 3.7 ± 2.6 min.
